Test results as given in patent US10051863B2, “Methods for apple scab control” (Valent U.S.A., Corporation, priority 2015, dated 2018).

Experiments:
apple trees [1] = assay: Example 2: phytotoxicity on apple trees; format: in vivo
Description: (§1) In this study, the 3-(difluoromethyl)-1-methyl-N-[(3R)-1,1,3-trimethyl-2,3-dihydroinden-4-yl]pyrazole-4-carboxamide treatment was applied at the time of bud swell in mid March on apple tree trunks (treatment 5). The result of this treatment was compared to metconazole treatments applied when the apple trees were dormant (treatments 2 and 3), at the time of bud swell (treatment 4), and a foliar spray applied after petal fall (treatment 6). The control treatment (treatment 1) was applied during bud swell, as well. Four trees were subjected to each treatment.

[2] = system: apple scab caused by Venturia inaequalis; assay: Example 2: apple tree trunk treatment, leaf and fruit pest incidence and severity; format: in vivo
Description: as §1

apple trees [3] = assay: Example 1: apple leaf phytotoxicity after bark spray; format: in vivo; set-up: scale not given here
Description: (§2) Applicant conducted the following study to determine the effect of a 3-(difluoromethyl)-1-methyl-N-[(3R)-1,1,3-trimethyl-2,3-dihydroinden-4-yl]pyrazole-4-carboxamide bark spray application on common fungal infections in apple and pear trees. Applications were made in late February with a CO2 charged, single-tip hand sprayer. Treatments were applied as a spray to the lower 3 to 4 feet of the tree trunks all the way around the tree. The tree trunks were sprayed until they were wet. If the treatments included a surfactant (see tables), then the treatments included a surfactant at a rate of 3 fl oz/gallon of the spray mix. The apple trees were at bed swell stage. The apple tree trunks were about 5 to 8 inches in diameter. The pear trees were at mid-petal fall with some green leaves emerging. The pear tree trunks were about 10 to 12 inches in diameter. The following rates in grams per active/cm diameter tree trunk are based on an average trunk diameter. A large amount of apple scab naturally developed during this growing season in this location. The effects of the treatments on apple leaf phytotoxicity, apple leaf apple scab incidence, apple leaf scab severity, and apple leaf percent control were observed 113 and 169 days after treatment (“DAT”). The results of this study are below in Tables 1 and 2.

[4] = system: apple scab caused by Venturia inaequalis; assay: Example 1: bark spray on apple trees, apple leaf scab incidence, severity and % control; format: in vivo; set-up: Apple leaf scab severity: scale not given here; Apple Leaf scab incidence: unit not given here; conditions: for Apple Leaf scab incidence / Apple leaf % control / Apple leaf scab severity: bark spray
Description: as §2

apple scab = conditions: background statement, cited from earlier work
Fabraea leaf spot = assay: Example 1: bark spray on pear trees, Fabraea leaf spot control; format: in vivo; conditions: bark spray at mid-petal fall, at this rate and time of development
Description: as §2

Alternaria leaf spot = assay: Example 1: bark spray on pear trees, Alternaria leaf spot control; format: in vivo; conditions: bark spray at mid-petal fall, at this rate and time of development
Description: as §2

Water solubility = format: physicochemical
[5] = treatment 2, applied when apple trees dormant, 1.72 grams active/cm trunk diameter + 2.3% V/V surfactant
[6] = treatment 3, applied when apple trees dormant, 1.72 grams active/cm trunk diameter + 2.3% V/V surfactant
[7] = treatment 4, applied at the time of bud swell, 1.72 grams active/cm trunk diameter + 2.3% V/V surfactant
[8] = treatment 6, foliar spray applied after petal fall, 4 oz pr/A, surfactant not given
[9] = first fruit pest, treatment 2, applied when apple trees dormant, 1.72 grams active/cm trunk diameter + 2.3% V/V surfactant
[10] = first fruit pest, treatment 3, applied when apple trees dormant, 1.72 grams active/cm trunk diameter + 2.3% V/V surfactant
[11] = first fruit pest, treatment 4, applied at the time of bud swell, 1.72 grams active/cm trunk diameter + 2.3% V/V surfactant
[12] = first fruit pest, treatment 6, foliar spray applied after petal fall, 4 oz pr/A, surfactant not given
[13] = 113 DAT, 0.86 grams active/cm trunk diameter + 2.3% V/V surfactant
[14] = 113 DAT, 1.72 grams active/cm trunk diameter + 2.3% V/V surfactant
[15] = 113 DAT, 3.44 grams active/cm trunk diameter + 2.3% V/V surfactant
[16] = 169 DAT, 0.86 grams active/cm trunk diameter + 2.3% V/V surfactant
[17] = 169 DAT, 1.7 grams active/cm trunk diameter + 2.3% V/V surfactant
[18] = 169 DAT, 3.4 grams active/cm trunk diameter + 2.3% V/V surfactant
[19] = 113 DAT, 1.16 grams active/cm trunk diameter + 2.3% V/V surfactant
[20] = 169 DAT, 1.16 grams active/cm trunk diameter + 2.3% V/V surfactant
[21] = treatment 5, applied at the time of bud swell in mid March on apple tree trunks, 0.003 grams active/cm trunk diameter + 2.3% V/V surfactant
[22] = first fruit pest, treatment 5, applied at the time of bud swell in mid March on apple tree trunks, 0.003 grams active/cm trunk diameter + 2.3% V/V surfactant
[23] = 113 DAT, 0.003 grams active/cm trunk diameter + 2.3% V/V surfactant
[24] = 113 DAT, 0.03 grams active/cm trunk diameter + 2.3% V/V surfactant
[25] = 169 DAT, 0.003 grams active/cm trunk diameter + 2.3% V/V surfactant
[26] = 169 DAT, 0.03 grams active/cm trunk diameter + 2.3% V/V surfactant

In the case of `CC1(C)CCC(Cc2ccc(Cl)cc2)C1(O)Cn1cncn1` (centres unmarked) [Metconazole + Surfactant, metconazole], the Phytotoxicity (apple trees [1]; [5]) is reported as 0, the Phytotoxicity (apple trees [1]; [6]) is reported as 0 and the Phytotoxicity (apple trees [1]; [7]) is reported as 0. For the same molecule, the Phytotoxicity (apple trees [1]; [8]) was 0, the Fruit pest incidence [2, 9] was 33.75 and the Fruit pest severity [2, 9] was 2.25. The Fruit pest incidence [2, 10] was 6.67, the Fruit pest severity [2, 10] was 0.333 and the Fruit pest incidence [2, 11] was 14.00. It also gave a Fruit pest severity [2, 11] of 1.125, a Fruit pest incidence [2, 12] of 2.75 and a Fruit pest severity [2, 12] of 0.263. For the same molecule, the Fruit pest incidence [2, 5] was 45.0, the Fruit pest severity [2, 5] was 3.0 and the Leaf pest incidence [2, 5] was 1.875. The Leaf pest severity [2, 5] was 5.0, the Fruit pest incidence [2, 6] was 10.0 and the Fruit pest severity [2, 6] was 0.5. It also gave a Leaf pest incidence [2, 6] of 1.000, a Leaf pest severity [2, 6] of 1.7 and a Fruit pest incidence [2, 7] of 18.67. For the same molecule, the Fruit pest severity [2, 7] was 1.5, the Leaf pest incidence [2, 7] was 0.140 and the Leaf pest severity [2, 7] was 2.0. It also gave a Fruit pest incidence [2, 8] of 3.67, a Fruit pest severity [2, 8] of 0.350 and a Leaf pest incidence [2, 8] of 0.125. For the same molecule, the Leaf pest severity [2, 8] was 0.8, the “Apple Leaf Phytotoxicity” value (apple trees [3]; [13]) was 0 and the “Apple Leaf Phytotoxicity” value (apple trees [3]; [14]) was 0. The “Apple Leaf Phytotoxicity” value (apple trees [3]; [15]) was 0, the “Apple Leaf Phytotoxicity” value (apple trees [3]; [16]) was 0 and the “Apple Leaf Phytotoxicity” value (apple trees [3]; [17]) was 0. The “Apple Leaf Phytotoxicity” value (apple trees [3]; [18]) was 0, the “Apple Leaf scab incidence” value [4, 13] was 12.5 and the “Apple leaf % control” value [4, 13] was 80%. The “Apple leaf scab severity” value [4, 13] was 10, the “Apple Leaf scab incidence” value [4, 14] was 18 and the “Apple leaf % control” value [4, 14] was 68.8%. The “Apple leaf scab severity” value [4, 14] was 18.3, the “Apple Leaf scab incidence” value [4, 15] was 11.25 and the “Apple leaf % control” value [4, 15] was 80%. For the same molecule, the “Apple leaf scab severity” value [4, 15] was 13.3, the “Apple Leaf scab incidence” value [4, 16] was 18.88 and the “Apple leaf % control” value [4, 16] was 31.3%. For the same molecule, the “Apple leaf scab severity” value [4, 16] was 4.25, the “Apple Leaf scab incidence” value [4, 17] was 15.5 and the “Apple leaf % control” value [4, 17] was 27.5%. For the same molecule, the “Apple leaf scab severity” value [4, 17] was 4.75, the “Apple Leaf scab incidence” value [4, 18] was 7.25 and the “Apple leaf % control” value [4, 18] was 62.5%. For the same molecule, the “Apple leaf scab severity” value [4, 18] was 2.75.

In the case of `CCCC1COC(Cn2cncn2)(c2ccc(Cl)cc2Cl)O1` (centres unmarked) [Propiconazole + Surfactant, propiconazole], the “Apple Leaf Phytotoxicity” value (apple trees [3]; [19]) is reported as 0, the “Apple Leaf Phytotoxicity” value (apple trees [3]; [20]) is reported as 0 and the “Apple Leaf scab incidence” value [4, 19] is reported as 18.78. For the same molecule, the “Apple leaf % control” value [4, 19] was 68.3%, the “Apple leaf scab severity” value [4, 19] was 8.3 and the “Apple Leaf scab incidence” value [4, 20] was 13.38. For the same molecule, the “Apple leaf % control” value [4, 20] was 36.3% and the “Apple leaf scab severity” value [4, 20] was 4.63.

In the case of `O=C1C2CC=CCC2C(=O)N1SC(Cl)(Cl)Cl` (centres unmarked) [Captan, N-trichtoromethylthiocyclohexene-1,2-dicarboximide], the systemic control activity (apple scab) is listed as “no systemic control activity” and the “effectiveness against apple scab” value (apple scab; contact fungicide) is listed as “effective against apple scab”.

In the case of `C[C@@H]1CC(C)(C)c2cccc(NC(=O)c3cn(C)nc3C(F)F)c21` [3-(Difluoromethyl)-1-methyl-N-[(3R)-1,1,3-trimethyl-2,3-dihydroinden-4-yl]pyrazole-4-carboxamide], the Phytotoxicity (apple trees [1]; [21]) is reported as 0, the “control of Fabraea leaf spot” value (Fabraea leaf spot) is reported as “failed to provide adequate control” and the “control of Alternaria leaf spot” value (Alternaria leaf spot) is reported as “failed to provide adequate control”. It also gave a Fruit pest incidence [2, 22] of 10.25, a Fruit pest severity [2, 22] of 0.638 and a Fruit pest incidence [2, 21] of 0.33. It also gave a Fruit pest severity [2, 21] of 0.183, a Leaf pest incidence [2, 21] of 0.25 and a Leaf pest severity [2, 21] of 0.3. The “Apple Leaf Phytotoxicity” value (apple trees [3]; [23]) was 0, the “Apple Leaf Phytotoxicity” value (apple trees [3]; [24]) was 0 and the “Apple Leaf Phytotoxicity” value (apple trees [3]; [25]) was 0. The “Apple Leaf Phytotoxicity” value (apple trees [3]; [26]) was 0, the water solubility (Water solubility) was “low water solubility” and the “Apple Leaf scab incidence” value [4, 23] was 20. For the same molecule, the “Apple leaf % control” value [4, 23] was 88.3%, the “Apple leaf scab severity” value [4, 23] was 13.8 and the “Apple Leaf scab incidence” value [4, 24] was 23. For the same molecule, the “Apple leaf % control” value [4, 24] was 80%, the “Apple leaf scab severity” value [4, 24] was 16.3 and the “Apple Leaf scab incidence” value [4, 25] was 13.75. For the same molecule, the “Apple leaf % control” value [4, 25] was 43.8%, the “Apple leaf scab severity” value [4, 25] was 7 and the “Apple Leaf scab incidence” value [4, 26] was 13.75. For the same molecule, the “Apple leaf % control” value [4, 26] was 46.3%, the “Apple leaf scab severity” value [4, 26] was 4.5 and the “activity against apple scab caused by Venturia inaequalis” value ([4]; combined with a surfactant and applied as a bark spray, as compared to metconazole and propiconazole) was “excellent activity”.
